In PMC12373499 (Nature Metabolism, 2025):
“And” between values parts separate entries of the source, which are not always exact repeats. Equal values may be shown once. Read-outs that look alike come from different tables or passages of the source. One block for each compound: values may come before it. *1 amine or outer side, *2 acyl side, *3 side chain or, on linkers, in order; H or OH if unused. Where a SMILES comes first, the peptide text is derived from it. Side-chain parts run from the residue outwards. [ ]: non-standard residue; d: D form. The star is where a group is joined. X1 = CN1C(=CC=CC=CC2=[N+](CCCCCC(=O)NCCN3C(=O)CC(*)C3=O)c3ccccc3C2(C)C)C(C)(C)c2ccccc21; X2 = CN1C(=CC=CC2=[N+](CCCCCC(=O)NCCN3C(=O)CC(*)C3=O)c3ccccc3C2(C)C)C(C)(C)c2ccccc21; C20 diacid = O=C(O)CCCCCCCCCCCCCCCCCCC(=O)*; γGlu = O=C(O)[C@H](CCC(=O)[*:2])N[*:1]; AEEA = NCCOCCOCC(=O)O; Aib = CC(C)(N)C(=O)O

Columns and labels:
mGIPR = molecular target: T1, mGIPR (Mus musculus, UniProt Q0P543); assay: HTRF cAMP assay in transiently transfected AD293 cells; assay type: cell-based; conditions: based upon cAMP assays and binding affinity
T1 construct: expressed in transfected cells; host or cells: AD293 cells, transient transfection (Lipofectamine 2000)
T1 sequence (Q0P543 19-460): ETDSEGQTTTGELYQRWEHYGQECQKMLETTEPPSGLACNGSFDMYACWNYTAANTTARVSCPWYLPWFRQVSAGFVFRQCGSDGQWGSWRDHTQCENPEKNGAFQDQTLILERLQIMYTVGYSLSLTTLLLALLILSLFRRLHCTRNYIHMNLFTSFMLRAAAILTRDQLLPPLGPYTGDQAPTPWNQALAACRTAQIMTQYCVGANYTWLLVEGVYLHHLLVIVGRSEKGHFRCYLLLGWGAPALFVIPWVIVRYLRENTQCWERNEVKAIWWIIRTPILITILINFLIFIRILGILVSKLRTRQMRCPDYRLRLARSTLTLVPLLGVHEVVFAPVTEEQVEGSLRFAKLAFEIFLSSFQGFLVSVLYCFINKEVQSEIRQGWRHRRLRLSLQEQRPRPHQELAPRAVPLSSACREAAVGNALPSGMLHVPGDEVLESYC
Procedure: AD293 cells (RRID:CVCL_9804) were transiently transfected 24 h before the assay in six-well plates with plasmids encoding wild-type hGLP1R, mGLP1R, hGIPR or mGIPR using Lipofectamine 2000. AD293 cells were authenticated at source using STR profiling. Cells were detached and treated with a range of agonist concentrations in serum-free DMEM + 0.1% BSA for 30 min at 37 °C in 96-well plates, followed by the addition of lysis buffer 2 (Cisbio) at a 1:2 ratio. Lysates were further diluted 1:10 to avoid spectral interference from the higher concentrations of fluorescent ligands in the HTRF assay, and the concentration of cAMP was determined after the addition of cAMP Dynamic detection reagents (Cisbio).

mouse islets = assay: Colocalization (Manders' coefficient) of probes in mouse islets; assay type: cell-based; conditions: WT islets live, TzCy3 500nM + LUX645 100nM
Procedure: (§1) Probe labelling was analysed using corrected total cell fluorescence, which is integrated density − (area of selected cell × mean fluorescence of background readings)[52],[53]. Colocalization was determined using Manders’ coefficient, which calculates the proportion of pixels in one channel that also show intensity from both channels. Full width at half maximum was used to analyse labelling patterns at the membrane versus cytoplasm. All analyses were performed in ImageJ (NIH), with brightness and contrast linearly adjusted across the entire image for presentation purposes and applied equally between all states under examination.

GLP1R^KO/KO islets = assay: Probe labelling of GLP1R^KO/KO islets; assay type: cell-based, mouse; conditions: for CTCF values of daLUXendin544: individual values
Procedure: Mice were humanely killed using a schedule-1 method, and the common bile duct was injected with Serva NB8 (1 mg ml^−1) collagenase. The inflated pancreas was dissected, and islets were isolated using Histopaque-1119 and 1083 (Sigma-Aldrich) gradients and cultured at 37 °C, 5% CO2 in RPMI supplemented with 10% FBS (Gibco), 100 units per ml penicillin and 100 μg ml^−1 streptomycin. Islets were used up to 4 days after isolation.
as §1

Nluc–GIPR (hGIPR) = molecular target: T2, Nluc–GIPR (hGIPR) (Homo sapiens, UniProt P48546); assay: NanoBRET saturation binding assay, HEK293T cells
T2 construct: expressed in transfected cells; host or cells: HEK293T cells, transient expression
T2 sequence (P48546 22-466): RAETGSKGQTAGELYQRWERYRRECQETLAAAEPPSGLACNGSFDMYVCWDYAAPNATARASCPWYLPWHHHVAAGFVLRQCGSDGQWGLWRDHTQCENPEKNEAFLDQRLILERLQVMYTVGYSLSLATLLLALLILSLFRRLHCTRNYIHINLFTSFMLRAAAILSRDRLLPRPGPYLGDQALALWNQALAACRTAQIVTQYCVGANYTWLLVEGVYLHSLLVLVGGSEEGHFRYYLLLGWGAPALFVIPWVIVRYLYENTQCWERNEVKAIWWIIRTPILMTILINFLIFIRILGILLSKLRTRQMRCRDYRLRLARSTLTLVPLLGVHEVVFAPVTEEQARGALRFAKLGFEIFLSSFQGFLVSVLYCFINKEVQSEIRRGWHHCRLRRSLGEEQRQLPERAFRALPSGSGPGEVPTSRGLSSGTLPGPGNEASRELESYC
Procedure: (§2) HEK293T cells (RRID:CVCL_0063) were cultured in DMEM/F12 GlutaMAX (ThermoFisher), supplemented with 10% FBS and 1% antibiotic-antimycotic solution and cultured at 37 °C, 5% CO2. HEK293T cells were authenticated at source using STR profiling. […] Media was then removed and the cells were incubated in PBS supplemented with 0.1% BSA and 0.01% NanoGlo (Promega). […] Plates were read using a PheraSTAR microplate reader, using the NanoBRET filter module. BRET ratios (λacceptor/λdonor) were calculated, and saturation data fit using the ‘One Site – Specific Binding’ equation of GraphPad Prism 10. Competition binding was fit using the ‘One Site – Fit Ki’ equation.

Nluc–GLP1R (hGLP1R) = molecular target: T3, Nluc–GLP1R (hGLP1R) (Homo sapiens, UniProt P43220); assay: NanoBRET saturation binding assay, HEK293T cells
T3 construct: expressed in transfected cells; host or cells: HEK293T cells, transient expression
Procedure: as §2

[1] = molecular target: Nluc-tagged human GIPR (human) (UniProt P48546); assay: FRET or BRET
[2] = molecular target: Nluc-tagged human GLP1R (human) (UniProt P43220); assay: FRET or BRET
[3] = molecular target: human GIPR (Nluc-GIPR) (human) (UniProt P48546); assay: FRET or BRET; NanoBRET saturation binding on HEK293T cells transiently expressing Nluc-GLP1R or Nluc-GIPR; PBS with 0.1% BSA and 0.01% NanoGlo; daLUXendin added over a range of concentrations, without or with 1 uM GIP and 1 uM Exendin-9 to determine specific binding; fit 'One Site - Specific Binding'
[4] = molecular target: human GLP1R (Nluc-GLP1R) (human) (UniProt P43220); assay: as above
[5] = molecular target: human GIPR (Nluc-GIPR) (human) (UniProt P48546); assay: as above; remark: listed apart in the source
[6] = molecular target: human GLP1R (Nluc-GLP1R) (human) (UniProt P43220); assay: as above; remark: listed apart in the source

human GLP1R (Nluc-GLP1R) (human), sequence (P43220 24-463): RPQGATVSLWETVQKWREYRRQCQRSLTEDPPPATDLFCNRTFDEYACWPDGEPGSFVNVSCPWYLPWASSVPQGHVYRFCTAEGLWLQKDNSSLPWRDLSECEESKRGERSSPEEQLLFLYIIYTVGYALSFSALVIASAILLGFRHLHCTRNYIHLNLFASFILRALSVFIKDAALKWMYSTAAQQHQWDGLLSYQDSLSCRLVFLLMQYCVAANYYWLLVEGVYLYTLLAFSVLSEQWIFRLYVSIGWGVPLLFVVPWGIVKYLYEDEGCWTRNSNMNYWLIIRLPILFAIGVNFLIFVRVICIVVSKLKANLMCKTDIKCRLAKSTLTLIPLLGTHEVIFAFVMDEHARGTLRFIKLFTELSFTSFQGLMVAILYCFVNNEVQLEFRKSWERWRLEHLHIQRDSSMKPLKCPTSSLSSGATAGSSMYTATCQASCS
T3 sequence (P43220 24-463): as above
Nluc-tagged human GLP1R (human), sequence (P43220 24-463): as above

Compound: CC[C@H](C)[C@H](NC(=O)[C@H](CC(C)C)NC(=O)[C@H](Cc1c[nH]c2ccccc12)NC(=O)[C@H](CCC(N)=O)NC(=O)[C@@H](NC(=O)[C@H](Cc1ccccc1)NC(=O)[C@H](C)NC(=O)[C@H](CCCCN)NC(=O)[C@H](CCC(N)=O)NC(=O)[C@H](C)NC(=O)[C@@H](NC(=O)[C@H](CCCCN)NC(=O)[C@H](CC(=O)O)NC(=O)[C@H](CC(C)C)NC(=O)C(C)(C)NC(=O)[C@@H](NC(=O)[C@H](CO)NC(=O)[C@H](Cc1ccc(O)cc1)NC(=O)[C@H](CC(=O)O)NC(=O)[C@H](CO)NC(=O)[C@@H](NC(=O)[C@H](Cc1ccccc1)NC(=O)[C@@H](NC(=O)CNC(=O)[C@H](CCC(=O)O)NC(=O)C(C)(C)NC(=O)[C@@H](N)Cc1ccc(O)cc1)[C@@H](C)O)[C@@H](C)O)[C@@H](C)CC)[C@@H](C)CC)C(C)C)C(=O)N[C@@H](C)C(=O)NCC(=O)NCC(=O)N1CCC[C@H]1C(=O)N[C@@H](CO)C(=O)N[C@@H](CO)C(=O)NCC(=O)N[C@@H](C)C(=O)N1CCC[C@H]1C(=O)N1CCC[C@H]1C(=O)N1CCC[C@H]1C(=O)N[C@@H](CSC1CC(=O)N(CCNC(=O)CCCCC[N+]2=C(C=CC=C3N(C)c4ccccc4C3(C)C)C(C)(C)c3ccccc32)C1=O)C(N)=O (stereo partly drawn) [daLUXendin544] (H-Y[Aib]EGTFTSDYSI[Aib]LDKIAQKAFVQWLIAGGPSSGAPPPC(X2)-NH2)
- selectivity for mouse GLP1R over GIPR compared to tirzepatide (mGIPR): approximately fourfold less selectivity
- M1, daLUXendin544 vs LUXendin645 (mouse islets; image 1): 0.917
- M2, daLUXendin544 vs LUXendin645 (mouse islets; image 1): 0.994
- Manders' R, daLUXendin544 vs LUXendin645 (mouse islets; image 1): 0.852
- Pearson's, daLUXendin544 vs LUXendin645 (mouse islets; image 1): 0.83
- M1, daLUXendin544 vs LUXendin645 (mouse islets; image 2): 0.927
- M2, daLUXendin544 vs LUXendin645 (mouse islets; image 2): 0.996
- Manders' R, daLUXendin544 vs LUXendin645 (mouse islets; image 2): 0.744
- Pearson's, daLUXendin544 vs LUXendin645 (mouse islets; image 2): 0.679
- M1, daLUXendin544 vs LUXendin645 (mouse islets; image 3): 0.956
- M2, daLUXendin544 vs LUXendin645 (mouse islets; image 3): 0.995
- Manders' R, daLUXendin544 vs LUXendin645 (mouse islets; image 3): 0.727
- Pearson's, daLUXendin544 vs LUXendin645 (mouse islets; image 3): 0.616
- CTCF values of daLUXendin544 (GLP1R^KO/KO islets; GLP1R-/- + GIP): 466750 and 425691 and 412346 and 398972 and 803260 and 1574894 and 1388527 and 1122278 and 848564 and 323100 and 555998 and 554147 and 545690
- CTCF values of daLUXendin544 (GLP1R^KO/KO islets; GLP1R-/-): 1138974 and 1525024 and 2200632 and 868278 and 1499758 and 2095767 and 1136530 and 1464030 and 649874 and 1541507 and 604319 and 865421
- CTCF values of daLUXendin544 (GLP1R^KO/KO islets; GLP1RWT/WT): 3434876 and 3087793 and 4777725 and 2187512 and 1805461 and 1906480 and 1520223 and 2186271 and 2694391 and 5360897 and 5342379 and 1938584 and 1738950
- reduction of labelling in GLP1R^KO/KO islets (GLP1R^KO/KO islets; versus wild-type islets): ~ 50%

Compound: CC[C@H](C)[C@H](NC(=O)[C@H](CC(C)C)NC(=O)[C@H](Cc1c[nH]c2ccccc12)NC(=O)[C@H](CCC(N)=O)NC(=O)[C@@H](NC(=O)[C@H](Cc1ccccc1)NC(=O)[C@H](C)NC(=O)[C@H](CCCCNC(=O)COCCOCCNC(=O)COCCOCCNC(=O)CC[C@H](NC(=O)CCCCCCCCCCCCCCCCCCC(=O)O)C(=O)O)NC(=O)[C@H](CCC(N)=O)NC(=O)[C@H](C)NC(=O)[C@@H](NC(=O)[C@H](CCCCN)NC(=O)[C@H](CC(=O)O)NC(=O)[C@H](CC(C)C)NC(=O)C(C)(C)NC(=O)[C@@H](NC(=O)[C@H](CO)NC(=O)[C@H](Cc1ccc(O)cc1)NC(=O)[C@H](CC(=O)O)NC(=O)[C@H](CO)NC(=O)[C@@H](NC(=O)[C@H](Cc1ccccc1)NC(=O)[C@@H](NC(=O)CNC(=O)[C@H](CCC(=O)O)NC(=O)C(C)(C)NC(=O)[C@@H](N)Cc1ccc(O)cc1)[C@@H](C)O)[C@@H](C)O)[C@@H](C)CC)[C@@H](C)CC)C(C)C)C(=O)N[C@@H](C)C(=O)NCC(=O)NCC(=O)N1CCC[C@H]1C(=O)N[C@@H](CO)C(=O)N[C@@H](CO)C(=O)NCC(=O)N[C@@H](C)C(=O)N1CCC[C@H]1C(=O)N1CCC[C@H]1C(=O)N1CCC[C@H]1C(=O)N[C@@H](CSC1CC(=O)N(CCNC(=O)CCCCC[N+]2=C(C=CC=CC=C3N(C)c4ccccc4C3(C)C)C(C)(C)c3ccccc32)C1=O)C(N)=O (stereo partly drawn) [daLUXendin660+] (H-Y[Aib]EGTFTSDYSI[Aib]LDKIAQK([AEEA-AEEA-γGlu-C20 diacid])AFVQWLIAGGPSSGAPPPC(X1)-NH2)
- Bmax best-fit (nM), hGIPR (Nluc–GIPR (hGIPR); Nluc-tagged hGIPR, NanoBRET saturation, n = 3 independent repeats): 0.02314 nM
- Bmax (Nluc–GIPR (hGIPR); hGIPR, nonlin fit, One site -- Specific binding, best-fit value of pooled data): 0.02314
- Bmax best-fit (nM), hGLP1R (Nluc–GLP1R (hGLP1R); Nluc-tagged hGLP1R, NanoBRET saturation, n = 3 independent repeats): 0.03361 nM
- Bmax (Nluc–GLP1R (hGLP1R); hGLP1R, nonlin fit, One site -- Specific binding, best-fit value of pooled data): 0.03361

- Kd [1]: 8.7 nM
- Kd [2]: 2.18 nM
- Kd [3]: 10.2 nM and 4.22 nM and 7.41 nM
Compound: daLUXendin660 (peptide)

- Kd [1]: 6.46 nM
- Kd [2]: 1.38 nM
- Kd [3]: 12.2 nM and 10.7 nM and 14.1 nM
- Kd [4]: 2.14 nM and 1.77 nM and 3.89 nM
- Kd [5]: 6.46 nM
- Kd [6]: 1.38 nM
Compound: daLUXendin660+ (peptide)
